Counter-ions that a name gives are not always drawn. Like-named read-outs stand apart in the source and are kept apart here.
How the values were obtained:
pH (Table 1) = type: physicochemical
[1] = system: Aspergillus niger (CMCC 98003); assay: Minimum inhibitory concentration (MIC) assay, Example 33; type: cell-based; details: Aspergillus niger
Summary of the method: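 Conidia gently probed from sporulating colonies into RPMI 1640, set to 0.09-0.13 at 530 nm, then diluted 1:50 and mixed 1:2 with 2-fold serially diluted compounds. Following CLSI guidelines, incubation was at 35 °C before the MIC was recorded.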

[2] = system: Escherichia coli (ATCC 25922); assay: as above; type: cell-based; details: for MIC: Escherichia coli
Summary of the method: (§1)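 Antibacterial MICs come from CLSI-guided broth microdilution in CAMHB at 35° C, using a McFarland 0.5-standardized inoculum diluted 1:100 before 1:2 addition to drug wells.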

[3] = system: Pseudomonas aeruginosa (ATCC 27853); assay: as above; type: cell-based; details: Pseudomonas aeruginosa
Summary of the method: as §1

[4] = system: Candida albicans (ATCC 90029); assay: as above; type: cell-based; details: Candida albicans
Summary of the method: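 MIC read per CLSI after incubation at 35° C. Colonies in RPMI 1640 adjusted to OD530 0.08–0.13, diluted 1:50 and 1:20 to twice test density, then added 1:2 to wells holding 2-fold serial drug dilutions in RPMI 1640 (CLSI microdilution).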

[5] = system: Escherichia coli (ATCC 25922); assay: Time kill study, Example 33 (0 to 5 min); type: cell-based; details: 1×MIC
Summary of the method: (§2)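 Viable counts (Log10 CFU/mL) came from colonies counted after 24–48 hrs on agar plates. Samples were drawn at 0 min, 30 sec, 1 min and 5 min from equal-volume mixtures of compound solution and strain suspension, then diluted in test medium; CLSI procedures followed.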

[6] = system: Pseudomonas aeruginosa (ATCC 27853); assay: Time kill study, Example 33 (0 to 5 min); type: cell-based; details: 1×MIC
Summary of the method: as §2

[7] = system: Staphylococcus aureus (ATCC 29213); assay: Time kill study, Example 33 (0 to 5 min); type: cell-based; details: 1×MIC
Summary of the method: as §2

[8] = system: Candida albicans (ATCC 90029); assay: Time kill study, Example 33 (0 to 5 min); type: cell-based; details: 1×MIC
Summary of the method: as §2

[9] = system: Aspergillus niger (CMCC 98003); assay: Time kill study, Example 33 (0 to 5 min); type: cell-based; details: 1×MIC
Procedure: Thirty compounds were tested for antimicrobial activity using standard procedures and standard strains for both the minimum inhibitory concentration (MIC) assay and a time kill study. Both the MIC assay and the time kill study were performed according to Clinical and Laboratory Standards Institute (CLSI) guidelines. Three bacteria strains, Escherichia coli (ATCC 25922), Pseudomonas aeruginosa (ATCC 27853), Staphulococcus aureus (ATCC 29213), and two fungus strains, Candida albicans (ATCC 90029) and Aspergillus niger (CMCC 98003), were used in the experiments.
The viable counts in Log10 CFU/mL at each time point were recorded.
Time kill studies. Strain suspensions were prepared as described above for the MIC test, and strain suspensions and compound solutions were mixed in the same volume. Samples were removed at specified times including 0 min, 30 sec, 1 min and 5 mins, were diluted in the test medium and streaked on agar. Colonies were counted after 24 to 48 hrs of incubation.
The MIC values for thirty compounds against Escherichia coli, Pseudomonas aeruginosa, Staphulococcus aureus, Candida albicans, and Aspergillus niger were recorded and are presented in Table 3 and Table 4.

[10] = Solubility (Sol., Table 1); type: physicochemical
[11] = system: Staphulococcus aureus (ATCC 29213); assay: Minimum inhibitory concentration (MIC) assay, Example 33; type: cell-based, Staphylococcus aureus; details: Staphylococcus aureus
Summary of the method: as §1

[12] = CMCC98003, Table 19 summary, read-out: MIC
[13] = CMCC98003, n = 1, read-out: MIC Aspergillus niger
[14] = CMCC98003, n = 2, read-out: MIC Aspergillus niger
[15] = ATCC25922, Table 19 summary of Example 33 and Example 35, read-out: MIC
[16] = ATCC25922, n = 1, read-out: MIC E. coli
[17] = ATCC25922, n = 2, read-out: MIC E. coli
[18] = ATCC27853, Table 19 summary, read-out: MIC
[19] = ATCC27853, n = 1, read-out: MIC P. aeruginosa
[20] = ATCC27853, n = 2, read-out: MIC P. aeruginosa
[21] = ATCC90029, Table 19 summary, read-out: MIC
[22] = ATCC90029, n = 1, read-out: MIC Candida albicans
[23] = ATCC90029, n = 2, read-out: MIC Candida albicans
[24] = ATCC29213, Table 19 summary, read-out: MIC
[25] = ATCC29213, n = 1, read-out: MIC S. aureus
[26] = ATCC29213, n = 2, read-out: MIC S. aureus
[27] = 1 min, listed as Nex-88, hydrochloride

`CCCCCCCCCCCCOC(=O)C(C)NCCN(CC)CC.Cl` (stereo not shown) [Nex-62, Dodecyl 2-((2-(diethylamino)ethyl)amino)propanoate dihydrochloride] showed a pH (pH (Table 1)) of 0.73, an MIC [1, 12] of 12.5 µg/mL and an MIC [1, 13] of 12.5 µg/mL. The MIC [1, 14] was 12.5 µg/mL, the MIC [2, 15] was 100 µg/mL and the MIC [2, 16] was 100 µg/mL. For the same compound, the MIC [2, 17] was 100 µg/mL, the MIC [3, 18] was 6250 µg/mL and the MIC [3, 19] was 6250 µg/mL. It also gave an MIC [3, 20] of 6250 µg/mL, an MIC [4, 21] of 6.25 µg/mL and an MIC [4, 22] of 6.25 µg/mL. For the same compound, the MIC [4, 23] was 6.25 µg/mL, the “Viable counts, Escherichia coli time kill study” value ([5]; 0.5 min) was 4.78 Log10 CFU/mL and the “Viable counts, Escherichia coli time kill study” value ([5]; 1 min) was 5.02 Log10 CFU/mL. The “Viable counts, Escherichia coli time kill study” value ([5]; 5 min) was 3.82 Log10 CFU/mL, the “Viable counts, Escherichia coli time kill study” value ([5]; time 0) was 4.82 Log10 CFU/mL and the “Viable counts, Pseudomonas aeruginosa time kill study” value ([6]; 0.5 min) was 4 Log10 CFU/mL. The “Viable counts, Pseudomonas aeruginosa time kill study” value ([6]; 1 min) was <3.70 Log10 CFU/mL, the “Viable counts, Pseudomonas aeruginosa time kill study” value ([6]; 5 min) was <3.52 Log10 CFU/mL and the “Viable counts, Pseudomonas aeruginosa time kill study” value ([6]; time 0) was 5.52 Log10 CFU/mL. The “Viable counts, Staphylococcus aureus time kill study” value ([7]; 0.5 min) was 6.32 Log10 CFU/mL, the “Viable counts, Staphylococcus aureus time kill study” value ([7]; 1 min) was 6.35 Log10 CFU/mL and the “Viable counts, Staphylococcus aureus time kill study” value ([7]; 5 min) was 6.31 Log10 CFU/mL. For the same compound, the “Viable counts, Staphylococcus aureus time kill study” value ([7]; time 0) was 6.34 Log10 CFU/mL, the “Viable counts, Candida albicans time kill study” value ([8]; 0.5 min) was 5.37 Log10 CFU/mL and the “Viable counts, Candida albicans time kill study” value ([8]; 1 min) was 5.18 Log10 CFU/mL. For the same compound, the “Viable counts, Candida albicans time kill study” value ([8]; 5 min) was 5.16 Log10 CFU/mL, the “Viable counts, Candida albicans time kill study” value ([8]; time 0) was 5.12 Log10 CFU/mL and the “Viable counts, Aspergillus niger time kill study” value ([9]; 0.5 min) was 5.32 Log10 CFU/mL. The “Viable counts, Aspergillus niger time kill study” value ([9]; 1 min) was 5.21 Log10 CFU/mL, the “Viable counts, Aspergillus niger time kill study” value ([9]; 5 min) was 5.02 Log10 CFU/mL and the “Viable counts, Aspergillus niger time kill study” value ([9]; time 0) was 5.27 Log10 CFU/mL. For the same compound, the Sol. [10] was 48%, the MIC [11, 24] was 25 µg/mL and the MIC [11, 25] was 25 µg/mL. It also gave an MIC [11, 26] of 25 µg/mL.
`CCCCCCCCCCCCOC(=O)C(C)N(C)C` (stereo not shown) [Nex-05, Dodecyl 2-(dimethylamino)propanoate hydrochloride] showed a pH (pH (Table 1); hydrochloride) of 2.87, an MIC ([2]; ATCC25922, Table 19 summary of Example 33 and Example 35) of 3130 µg/mL and an MIC ([2]; ATCC25922, read-out: MIC E. coli, n = 1) of 3130 µg/mL. For the same compound, the MIC ([2]; ATCC25922, read-out: MIC E. coli, n = 2) was 3130 µg/mL, the “MIC E. coli” value ([2]; n = 1, listed as Nex-88, hydrochloride) was 3130 µg/mL and the MIC ([3]; ATCC27853, Table 19 summary) was 6250 µg/mL. For the same compound, the MIC ([3]; ATCC27853, read-out: MIC P. aeruginosa, n = 1) was 6250 µg/mL, the MIC ([3]; ATCC27853, read-out: MIC P. aeruginosa, n = 2) was 6250 µg/mL and the MIC ([4]; ATCC90029, Table 19 summary) was > 12500 µg/mL. For the same compound, the MIC ([4]; ATCC90029, read-out: MIC Candida albicans, n = 1) was > 12500 µg/mL, the MIC ([4]; ATCC90029, read-out: MIC Candida albicans, n = 2) was > 12500 µg/mL and the “Viable counts, Escherichia coli time kill study” value ([5]; 0.5 min, hydrochloride) was <4.0 Log10 CFU/mL. For the same compound, the “Viable counts, Escherichia coli time kill study” value ([5]; 0.5 min, listed as Nex-88, hydrochloride) was <4.0 Log10 CFU/mL, the “Viable counts, Escherichia coli time kill study” value [5, 27] was <3.70 Log10 CFU/mL and the “Viable counts, Escherichia coli time kill study” value ([5]; 5 min, listed as Nex-88, hydrochloride) was <3.52 Log10 CFU/mL. For the same compound, the “Viable counts, Pseudomonas aeruginosa time kill study” value [6, 27] was <3.70 Log10 CFU/mL, the “Viable counts, Pseudomonas aeruginosa time kill study” value ([6]; 5 min) was <3.52 Log10 CFU/mL and the MIC ([11]; ATCC29213, read-out: MIC S. aureus, n = 1) was 3130 µg/mL.
With `CCCCCCCCCCCCOC(=O)C(C)NC(C)C.Cl` (stereo not shown) [Nex-60, Dodecyl 2-(isopropylamino)propanoate hydrochloride] the pH (pH (Table 1)) was 2.04, the melting point was 86 to 91 °C and the MIC [1, 12] was > 12500 µg/mL. For the same compound, the MIC [1, 13] was > 12500 µg/mL, the MIC [1, 14] was > 12500 µg/mL and the MIC [2, 15] was 3130 µg/mL. The MIC [2, 16] was 3130 µg/mL, the MIC [2, 17] was 3130 µg/mL and the MIC [3, 18] was 6250 µg/mL. It also gave an MIC [3, 19] of 6250 µg/mL, an MIC [3, 20] of 6250 µg/mL and an MIC [4, 21] of 12500 µg/mL. For the same compound, the MIC [4, 22] was 12500 µg/mL, the MIC [4, 23] was 12500 µg/mL and the “Viable counts, Escherichia coli time kill study” value ([5]; 0.5 min) was <4.0 Log10 CFU/mL. For the same compound, the “Viable counts, Escherichia coli time kill study” value ([5]; 1 min) was 3.7 Log10 CFU/mL, the “Viable counts, Escherichia coli time kill study” value ([5]; 5 min) was <3.52 Log10 CFU/mL and the “Viable counts, Escherichia coli time kill study” value ([5]; time 0) was 5.88 Log10 CFU/mL. The “Viable counts, Pseudomonas aeruginosa time kill study” value ([6]; 0.5 min) was 4.6 Log10 CFU/mL, the “Viable counts, Pseudomonas aeruginosa time kill study” value ([6]; 1 min) was 3.7 Log10 CFU/mL and the “Viable counts, Pseudomonas aeruginosa time kill study” value ([6]; 5 min) was <3.52 Log10 CFU/mL. The “Viable counts, Pseudomonas aeruginosa time kill study” value ([6]; time 0) was 5.58 Log10 CFU/mL, the “Viable counts, Staphylococcus aureus time kill study” value ([7]; 0.5 min) was 6.23 Log10 CFU/mL and the “Viable counts, Staphylococcus aureus time kill study” value ([7]; 1 min) was 6.25 Log10 CFU/mL. The “Viable counts, Staphylococcus aureus time kill study” value ([7]; 5 min) was 6.21 Log10 CFU/mL, the “Viable counts, Staphylococcus aureus time kill study” value ([7]; time 0) was 6.28 Log10 CFU/mL and the Sol. [10] was 46%. It also gave an MIC [11, 24] of 1560 µg/mL, an MIC [11, 25] of 1560 µg/mL and an MIC [11, 26] of 1560 µg/mL.

Reference: patent US20140357713A1, “ANTIMICROBIAL COMPOUNDS AND METHODS OF USE” (NexMed Holdings, Inc., priority 2012, published 2014)
